Here are results for seven compounds from PMC6225165, “Design and Synthesis of Novel Dehydroepiandrosterone Analogues as Potent Antiproliferative Agents” (Molecules : A Journal of Synthetic Chemistry and Natural …, 2018).

SMILES strings stand for the structures. pIC50: −log10 of the molar value. Bounds are passed on as bounds.

For one test, the system named is A549. The experiment in a line: MTT antiproliferative assay, A549. Conditions: 48 h, MTT; for inhibition at 100 µM: read-out: % Growth Inhibition at 100 μM A549. Type of test: cell-based, human. The procedure:
(§1) The antiproliferative activity of the title compounds against the panel of six different human cancer cell lines, viz. lung (A549), cervix (HeLa), liver (HepG-2), liver (BEL7402), colorectal (HCT116), and breast (MCF-7) cell lines, was evaluated using a standard MTT-based colorimetric assay. All cell lines were obtained from the Key Laboratory of Natural Resources and Functional Molecules of the Changbai Mountain (Yanbian University) and maintained in Dulbecco’s modified Eagle’s medium (DMEM) and RPMI Media 1640 (RPMI1640), supplemented with 10% foetal bovine serum (FBS) at 37 °C in a humidified atmosphere containing 5% CO2.
(§2) Cells were plated in 96-well plates at appropriate densities to ensure exponential growth throughout the experimental period (9 × 10^3 cells per well), and then allowed to adhere for 24 h. Cells were then treated for 48 h with each compound. After 48 h of incubation, 10 μL of MTT solution were added to each well to a final concentration of 2 mg·mL^−1. Plates were then incubated for a further 4 h. After incubation, the MTT solution was removed and 150 μL of DMSO were added to each well for coloration. The plates were shaken vigorously for 10 min at room temperature to ensure complete solubilisation. The optometric density (OD) was read on a microplate reader (EL × 800, BioTek, Highland Park, Winooski, VT, USA) at 492 nm, and the data were subsequently analysed. The percentage of cell growth inhibition was calculated from the following equation:Inhibitory rate (%) = [1 − (ODtreated − ODblank)/(ODcontrol − ODblank)] × 100.
(§3) To obtain the antiproliferative activity of compounds 2a–2w, the compounds were selected in the same way with four serial concentrations (1, 10, 50 and 100 μM) of those compounds. The optometric density (OD) reading was then used to calculate the IC50.

The test system of the next test is Hela. Description: MTT antiproliferative assay, Hela. The format is cell-based, human. To be noted: 48 h, MTT; for inhibition at 100 µM: read-out: % Growth Inhibition at 100 μM Hela. The procedure:
as §1, §2, §3
In general terms: Tetrazolium dyes change colour on reduction, which living cells bring about.

For the next test, the system named is HepG-2. The experiment in a line: MTT antiproliferative assay, HepG-2. Type of test: cell-based, human. Conditions: 48 h, MTT; for inhibition at 100 µM: read-out: % Growth Inhibition at 100 μM HepG-2. The procedure: as §1, §2, §3
The test system of another test is BEL7402. The experiment in a line: MTT antiproliferative assay, BEL7402. The format is cell-based, human. Conditions: 48 h, MTT; for inhibition at 100 µM: read-out: % Growth Inhibition at 100 μM BEL7402. On the procedure:
as §1, §2, §3

The subject of another test is HCT116. The experiment in a line: MTT antiproliferative assay, HCT116. To be noted: 48 h, MTT; for inhibition at 100 µM: read-out: % Growth Inhibition at 100 μM HCT116. Type of test: cell-based, human. The procedure:
as §1, §2, §3

For another test, the system named is MCF-7. Description: MTT antiproliferative assay, MCF-7. Type of test: cell-based, human. To be noted: 48 h, MTT; for inhibition at 100 µM: read-out: % Growth Inhibition at 100 μM MCF-7. On the procedure: as §1, §2, §3
The subject of test [1] is human normal liver (L02) cells. The experiment in a line: MTT assay on normal cell line L02. The format is cell-based. To be noted: 48 h, MTT; for % Growth Inhibition at 100 μM L02 / inhibition at 100 µM: normal cells; for pIC50: normal cell line; for inhibition at 100 µM: read-out: % Growth Inhibition at 100 μM L02.

As usually defined, the pIC50 is the IC50 on a negative log10 scale, so that one unit is a factor of ten. A higher pIC50 goes with a low IC50. As to `CC12CCC3C(CC=C4CC(O)CCC43C)C1C/C(=C\c1cn(-c3ccc(C(F)(F)F)cc3)nn1)C2=O` (stereo not drawn) [Compound 2w, (E)-3-hydroxy-10,13-dimethyl-16-((1-(4-(trifluoromethyl)phenyl)-1H-1,2,3-triazol4-y)methylene)-1,3,4,7,8,9,10,11,12,13,15,16-dodecahydro-2H-cyclopenta[α] phenanthren-17(14H)-one], in the test with A549, the “% Growth Inhibition at 100 μM A549” value is reported as 75.2% and the pIC50 is 4.14. In the test with Hela, the “% Growth Inhibition at 100 μM Hela” value was determined as 44.1% and the pIC50 is < 4.00. In addition, in the test on HepG-2, the “% Growth Inhibition at 100 μM HepG-2” value turned out to be 48.3% and the pIC50 is < 4.00. Besides, in the test on BEL7402, the “% Growth Inhibition at 100 μM BEL7402” value was determined as 62.2% and the pIC50 was 4.03. In the test on HCT116, the “% Growth Inhibition at 100 μM HCT116” value is reported as 75.0% and the pIC50 was 4.64. Moreover, in the test with MCF-7, the “% Growth Inhibition at 100 μM MCF-7” value stood at 41.3% and the pIC50 is < 4.00. In addition, in test [1], the “% Growth Inhibition at 100 μM L02” value was determined as 57.6% and the pIC50 is 4.03.
Usually inhibition stands for the drop in the measured response relative to a control, in per cent. Regarding `CC12CCC3C(CC=C4CC(O)CCC43C)C1C/C(=C\c1cn(-c3cccc(Cl)c3)nn1)C2=O` (centres unmarked) [Compound 2f, (E)-16-((1-(3-chlorophenyl)-1H-1,2,3-triazol-4-yl)methylene)-3-hydroxy-10,13-dimethyl-1,3,4,7,8,9,10,11,12,13,15,16-dodecahydro-2H-cyclopenta[a]phenanthren-17(14H)-one], the inhibition at 100 µM in the test with A549 (Homo sapiens, A549) turned out to be 11.9%; in the test on Hela (Homo sapiens) it was 9.2%; with HepG-2 (Homo sapiens, HepG2), 51.7%; in the test on BEL7402 (Homo sapiens, Bel-7402), 36.5%; in the test with HCT116 (Homo sapiens, HCT-116), 41.9%; in the test with MCF-7 (Homo sapiens, MCF7), 41%. In test [1] (Homo sapiens, L02), the inhibition at 100 µM amounted to 60.2%.
As for `CC12CCC3C(CC=C4CC(O)CCC43C)C1C/C(=C\c1cn(-c3ccccc3Cl)nn1)C2=O` (centres unmarked) [Compound 2e, (E)-16-((1-(2-chlorophenyl)-1H-1,2,3-triazol-4-yl)methylene)-3-hydroxy-10,13-di-methyl-1,3,4,7,8,9,10,11,12,13,15,16-dodecahydro-2H-cyclopenta[a]phenan-thren-17(14H)-one], the “% Growth Inhibition at 100 μM A549” value in the test with A549 was “NA (NA: antiproliferative activity <5%)”. In addition, the “% Growth Inhibition at 100 μM Hela” value with Hela is on record as 32.8%. Further, the “% Growth Inhibition at 100 μM HepG-2” value in the test on HepG-2 was “NA (NA: antiproliferative activity <5%)”. Further, the “% Growth Inhibition at 100 μM BEL7402” value with BEL7402 is on record as 10.5%. Besides, the “% Growth Inhibition at 100 μM HCT116” value in the test with HCT116 was determined as 23.0%. In the test with MCF-7, the “% Growth Inhibition at 100 μM MCF-7” value stood at 37.3%. The “% Growth Inhibition at 100 μM L02” value in test [1] turned out to be 12.4%.
For the compound `CC12CCC3C(CC=C4CC(O)CCC43C)C1C/C(=C\c1cn(-c3ccc(Cl)cc3)nn1)C2=O` (centres unmarked) [Compound 2g, (E)-16-((1-(4-chlorophenyl)-1H-1,2,3-triazol-4-yl)methylene)-3-hydroxy-10,13-dimethyl-1,3,4,7,8,9,10,11,12,13,15,16-dodecahydro-2H-cyclopenta[a]phenanthren-17(14H)-one], the inhibition at 100 µM in the test with A549 (Homo sapiens, A549) came out at 69.8%; in the test with Hela (Homo sapiens) it was 62.8%; in the test with HepG-2 (Homo sapiens, HepG2) it was 32.5%; in the test with BEL7402 (Homo sapiens, Bel-7402), 66.9%; with HCT116 (Homo sapiens, HCT-116) it was 78.7%; with MCF-7 (Homo sapiens, MCF7) it was 39.9%. For the same compound, the inhibition at 100 µM in test [1] (Homo sapiens, L02) stood at 40.9%. In addition, the pIC50 is 4.43 with A549 (Homo sapiens, A549); 4.24 in the test with Hela (Homo sapiens, HeLa); < 4.00 in the test with HepG-2 (Homo sapiens, HepG2); 4.23 with BEL7402 (Homo sapiens, Bel-7402); 4.63 in the test on HCT116 (Homo sapiens, HCT-116); < 4.00 with MCF-7 (Homo sapiens, MCF7). For the same compound, the pIC50 in test [1] (Homo sapiens, L02) is < 4.00.
As for `Cc1ccc(-n2cc(/C=C3\CC4C5CC=C6CC(O)CCC6(C)C5CCC4(C)C3=O)nn2)cc1` (centres unmarked) [Compound 2p, (E)-3-hydroxy-10,13-dimethyl-16-((1-p-tolyl-1H-1,2,3-triazol-4-yl)methylene)-1,3,4,7,8,9,10,11,12,13,15,16-dodecahydro-2H-cyclopenta[a]phenanthren-17(14H)-one], the inhibition at 100 µM worked out at 63.1% in the test on A549 (Homo sapiens, A549); 64.6% with Hela (Homo sapiens); 76% in the test with HepG-2 (Homo sapiens, HepG2); 23.7% in the test with BEL7402 (Homo sapiens, Bel-7402); 76.5% with HCT116 (Homo sapiens, HCT-116); 21.7% in the test with MCF-7 (Homo sapiens, MCF7). Further, the inhibition at 100 µM in test [1] (Homo sapiens, L02) worked out at 67.1%. Also, the pIC50 in the test on A549 (Homo sapiens, A549) is 4.25; in the test on Hela (Homo sapiens, HeLa) it was 4.20; in the test with HepG-2 (Homo sapiens, HepG2) it was 4.72; in the test with BEL7402 (Homo sapiens, Bel-7402) it was < 4.00; in the test with HCT116 (Homo sapiens, HCT-116), 4.36; with MCF-7 (Homo sapiens, MCF7) it was < 4.00. Moreover, the negative logarithm of the IC50 (pIC50) in test [1] (Homo sapiens, L02) is 4.21.
Turning to `COc1ccc(-n2cc(/C=C3\CC4C5CC=C6CC(O)CCC6(C)C5CCC4(C)C3=O)nn2)cc1` (centres unmarked) [Compound 2s, (E)-3-hydroxy-16-((1-(4-methoxyphenyl)-1H-1,2,3-triazol-4-yl)methylene)-10,13-dimethyl-1,3,4,7,8,9,10,11,12,13,15,16-dodecahydro-2H-cyclopenta[a]phenan-thren-17(14H)-one], in the test with A549, the “% Growth Inhibition at 100 μM A549” value amounted to 44.0% and the negative logarithm of the IC50 (pIC50) is < 4.00. In the test on Hela, the “% Growth Inhibition at 100 μM Hela” value was 14.9% and the pIC50 is < 4.00. Further, in the test on HepG-2, the “% Growth Inhibition at 100 μM HepG-2” value is listed as 42.3% and the pIC50 is < 4.00. In the test with BEL7402, the “% Growth Inhibition at 100 μM BEL7402” value is 38.4% and the pIC50 is < 4.00. In addition, in the test on HCT116, the “% Growth Inhibition at 100 μM HCT116” value was 70.7% and the pIC50 was 4.24. Further, in the test on MCF-7, the “% Growth Inhibition at 100 μM MCF-7” value came to 58.1% and the pIC50 was 4.16. Also, in test [1], the “% Growth Inhibition at 100 μM L02” value worked out at 58.5% and the pIC50 was 4.09.
Regarding `CC12CCC3C(CC=C4CC(O)CCC43C)C1C/C(=C\c1cn(-c3ccccc3F)nn1)C2=O` (centres unmarked) [Compound 2b, (E)-16-((1-(2-fluorophenyl)-1H-1,2,3-triazol-4-yl)methylene)-3-hydroxy-10,13-dimethyl-1,3,4,7,8,9,10,11,12,13,15,16-dodecahydro-2H-cyclopenta[a]phenan-thren-17(14H)-one], in the test with A549, the “% Growth Inhibition at 100 μM A549” value is “NA (NA: antiproliferative activity <5%)”. The “% Growth Inhibition at 100 μM Hela” value in the test on Hela is listed as “NA (NA: antiproliferative activity <5%)”. In addition, the “% Growth Inhibition at 100 μM HepG-2” value with HepG-2 is reported as “NA (NA: antiproliferative activity <5%)”. Further, in the test on BEL7402, the “% Growth Inhibition at 100 μM BEL7402” value is listed as “NA (NA: antiproliferative activity <5%)”. Moreover, the “% Growth Inhibition at 100 μM HCT116” value with HCT116 was “NA (NA: antiproliferative activity <5%)”. Further, the “% Growth Inhibition at 100 μM MCF-7” value in the test on MCF-7 is on record as “NA (NA: antiproliferative activity <5%)”. Moreover, the “% Growth Inhibition at 100 μM L02” value in test [1] is “NA (NA: antiproliferative activity <5%)”.
